8 compounds from PMC6105497 (The FEBS journal, 2018) can be followed below.

One test concerns the target vcFabH2 (C113A) (Vibrio cholerae serotype O1, UniProt Q9KLJ3, C113A). In kind it is binding. The settings on record: for Binding sites/molecule (Stoichiometry): pH 7.5.
The target in another test is vcFabH1 (Vibrio cholerae serotype O1, UniProt Q9KQH5). Briefly: biochemical. In kind it is biochemical. Particulars: for Reaction rate relative to that of acetyl-CoA: pH 7.5.
In the next test the target is vcFabH2 (Vibrio cholerae serotype O1, UniProt Q9KLJ3). Nature of the test: biochemical. In kind it is biochemical.
The target in the next test is vcFabH2 (C356A) (Vibrio cholerae serotype O1, UniProt Q9KLJ3, C356A). In kind it is binding.

For the compound `CC(C)CC(=O)SCCNC(=O)CCNC(=O)[C@H](O)C(C)(C)COP(=O)(O)OP(=O)(O)OC[C@H]1O[C@@H](n2cnc3c(N)ncnc32)[C@H](O)[C@@H]1OP(=O)(O)O` [Isovaleryl-CoA], on vcFabH2 (C113A), the ΔH is -9.347 kcal/mol, the ΔS is recorded as −16.20 cal∙mol^−1∙K^−1 and the “Binding sites/molecule (Stoichiometry)” value was determined as 0.74 ± 0.03. Also, at vcFabH1, the “Reaction rate relative to that of acetyl-CoA” value (“Reaction rate relative to that” for short) is “lower than 20%”.

With `CC(C)C(=O)SCCNC(=O)CCNC(=O)[C@H](O)C(C)(C)COP(=O)(O)OP(=O)(O)OC[C@H]1O[C@@H](n2cnc3c(N)ncnc32)[C@H](O)[C@@H]1OP(=O)(O)O` [Isobutyryl-CoA], on vcFabH2 (C113A), the ΔH was -8.57 kcal/mol, the ΔS is −13.00 cal∙mol^−1∙K^−1 and the “Binding sites/molecule (Stoichiometry)” value was found to be 0.77 ± 0.18.

Turning to `CCCCCCCCCCCC(=O)SCCNC(=O)CCNC(=O)[C@H](O)C(C)(C)COP(=O)(O)OP(=O)(O)OC[C@H]1O[C@@H](n2cnc3c(N)ncnc32)[C@H](O)[C@@H]1OP(=O)(O)O` [Lauroyl-CoA], on vcFabH2 (C113A), the ΔH was -6.563 kcal/mol, the ΔS was −4.60 cal∙mol^−1∙K^−1 and the “Binding sites/molecule (Stoichiometry)” value stood at 1.38 ± 0.02.

As to `CCCC(=O)SCCNC(=O)CCNC(=O)[C@H](O)C(C)(C)COP(=O)(O)OP(=O)(O)OC[C@H]1O[C@@H](n2cnc3c(N)ncnc32)[C@H](O)[C@@H]1OP(=O)(O)O` [Butyryl-CoA], at vcFabH2 (C113A), the ΔH is -8.259 kcal/mol, the ΔS was −12.00 cal∙mol^−1∙K^−1 and the “Binding sites/molecule (Stoichiometry)” value stood at 0.87 ± 0.03.

By Kd is commonly meant a measure of binding affinity in units of concentration. The low end stands for tighter binding, the high end for weaker binding. `CCCCCCCC(=O)SCCNC(=O)CCNC(=O)[C@H](O)C(C)(C)COP(=O)(O)OP(=O)(O)OC[C@H]1O[C@@H](n2cnc3c(N)ncnc32)[C@H](O)[C@@H]1OP(=O)(O)O` [Octanoyl-CoA]: on vcFabH2, the Hill coefficient n amounted to 1.8±0.2, binding was put at a Kd of 24.2 ± 2.2 µM and the “Vmax (maximum activity)” value stood at 18.0±1.1 μmol∙min^−1∙μmol^−1. Further, on vcFabH2 (C356A), the “Binding sites/molecule (Stoichiometry)” value is listed as 1, the ΔH is -3.414 kcal/mol and the ΔS amounted to 4.43 cal∙mol^−1∙K^−1. In addition, on vcFabH2 (C113A), the ΔH was -12.67 kcal/mol, the ΔS is given as −22.30 cal∙mol^−1∙K^−1 and the “Binding sites/molecule (Stoichiometry)” value is 0.90 ± 0.01. For the same compound, at vcFabH1, the “Reaction rate relative to that” value is “lower than 20%”.

With `CCCCCCCCCC(=O)SCCNC(=O)CCNC(=O)[C@H](O)C(C)(C)COP(=O)(O)OP(=O)(O)OC[C@H]1O[C@@H](n2cnc3c(N)ncnc32)[C@H](O)[C@@H]1OP(=O)(O)O` [Decanoyl-CoA], at vcFabH2 (C356A), the “Binding sites/molecule (Stoichiometry)” value was 1, the ΔH is -11.68 kcal/mol and the ΔS is −25.30 cal∙mol^−1∙K^−1. Moreover, at vcFabH2 (C113A), the ΔH was -7.457 kcal/mol, the ΔS was −4.24 cal∙mol^−1∙K^−1 and the “Binding sites/molecule (Stoichiometry)” value came out at 1.36 ± 0.01.

On to `CC(=O)SCCNC(=O)CCNC(=O)[C@H](O)C(C)(C)COP(=O)(O)OP(=O)(O)OC[C@H]1O[C@@H](n2cnc3c(N)ncnc32)[C@H](O)[C@@H]1OP(=O)(O)O` [Acetyl-CoA], for which, on vcFabH2 (C113A), the ΔH was -14.49 kcal/mol, the ΔS was −34.70 cal∙mol^−1∙K^−1 and the “Binding sites/molecule (Stoichiometry)” value was 0.69 ± 0.05. On vcFabH1, the Hill coefficient n is on record as 1.6±0.2, the Kd was determined as 21.2 ± 2.9 µM and the “Vmax (maximum activity)” value is on record as 14.0±1.1 μmol∙min^−1∙μmol^−1.

Regarding `CCCCCC(=O)SCCNC(=O)CCNC(=O)[C@H](O)C(C)(C)COP(=O)(O)OP(=O)(O)OC[C@H]1O[C@@H](n2cnc3c(N)ncnc32)[C@H](O)[C@@H]1OP(=O)(O)O` [Hexanoyl-CoA], at vcFabH2 (C356A), the “Binding sites/molecule (Stoichiometry)” value worked out at 1, the ΔH was -1.847 kcal/mol and the ΔS is 8.50 cal∙mol^−1∙K^−1. Further, at vcFabH2 (C113A), the ΔH was -11.78 kcal/mol, the ΔS is −22.10 cal∙mol^−1∙K^−1 and the “Binding sites/molecule (Stoichiometry)” value worked out at 0.878 ± 0.004. Also, the “Reaction rate relative to that” value at vcFabH1 is recorded as “lower than 20%”.
